The values below come from patent US10889812B2, “Short non-coding protein regulatory RNAs (sprRNAs) and methods of use” (University of Maryland, Baltimore, priority 2014, dated 2021).

The test system of data set [1] is HBE4 cells as well as primary normal human bronchial epithelial (NHBE) cells. Description: Cell viability and cell growth curve assay (MTT, trypan blue). It is filed as cell-based. The note with it: compared with cells treated with scrambled DNA oligonucleotides (Scr). On the procedure: We then wanted to determine whether piR-L-163 (SEQ ID NO:282) plays a functional role in human bronchial epithelial cells. We treated HBE4 cells as well as primary normal human bronchial epithelial (NHBE) cells with piR-L-163 complementary DNA oligonucleotides (Ant-163) (SEQ ID NO:496) or RNA oligonucleotides (Ant-163R) (SEQ ID NO:497) in the experiment. […] Cell cycle distributions were measured every 2 hrs. […]
Cell viability and cell growth curve assay were determined by MTT assay and trypan blue exclusion assay, respectively as described previously (Kirino, Y. & Mourelatos, Z. Mouse Piwi-interacting RNAs are 2′-O-methylated at their 3′ termini Nat Struct Mol Biol. 14, 347-348 (2007)). BrieflySpecifically, MTT (5 mg/ml) was added into cells and incubated at culture condition for 3 hours, removed the medium carefully and dissolved formazan in DMSO, assay was used to assess the surviving cells and OD values were measured using Microplate Reader Manager (Bio Rad) at wavelengths of 570/690 nm. […] Unstained viable cells were counted in hemocytometer chamber under microscope. […]

In data set [2] the test system is HBE4 cells. Description: Cell cycle analysis by flow cytometry, HBE4 cells synchronized at S phase. It is filed as cell-based, human. The note with it: measured every 2 hrs, vs Scr. On the procedure: We then wanted to determine whether piR-L-163 (SEQ ID NO:282) plays a functional role in human bronchial epithelial cells. We treated HBE4 cells as well as primary normal human bronchial epithelial (NHBE) cells with piR-L-163 complementary DNA oligonucleotides (Ant-163) (SEQ ID NO:496) or RNA oligonucleotides (Ant-163R) (SEQ ID NO:497) in the experiment. […] Cell cycle distributions were measured every 2 hrs.
Cell cycle distribution was analyzed by Flow Cytometry (Becton-Dickinson). Cells were synchronized in growth factor-free Keratinocyte-SFM with 2 mM Thymidine (Catalog No. T1895, Sigma-Aldrich) for 24 hrs. Transfection is performed using Lipofectamine™ RNAiMAX (Invitrogen) according to its manual, and the final concentration of annealed oligo RNAs is 400 nM. Four hour after transfection, culture medium was replaced by complete Keratinocyte-SFM supplemented with L-Glutamine, prequalified human recombinant EGF 1-53 and BPE. Cells were harvested at different time points, washed in phosphate-buffer saline (PBS), fixed with ice-cold 70% ethanol, and strained in PI/RNase solution (BD Pharmigen). The samples were analyzed on a FACScan flow cytometer in combination with BD lysis software (Becton-Dickinson).

The subject of data set [3] is HBE4 cells. As to the kind of experiment: Quantitative cell migration assay. Type of data set: cell-based, human. The settings on record: HBE4, vs Scr control. From the text:
(§1) For cell migration, we used two complementary assays. […] To compensate potential differences in the cell numbers among different treatment conditions, we seeded 10% less cells for Ant-163 treated HBE4 cells and 10% more cells for piR-L-163 transfected H1792 cells.
(§2) Two complimentary methods were used. For quantitative fluorescent dye assay, Innocyto™ Cell migration Assay kit (EMD Millipore) was used. Briefly, 24 hrs after treatment, 1×10^5 cells (10% less for Ant-163 treated cells or 10% more for piR-L-163 treated cells) were loaded to the upper chamber with growth factor-free Keratinocyte-SFM for (HBE4 cells) or serum-free DMEM (for H1792 cells) with the bottom chamber exposed to completed culture medium. Negative controls were used with 3 μM Latrunculin A. After 12 hrs incubation, fluorescence was measured using a fluorescence plate reader 485 nm (excitation) and 520 nm (emission) according to the manufacturer's instruction. For wound-healing assay, cells (24 hrs after treatment with different DNA or RNA oligonucleotides) were grown to confluence followed by scratching with a pipette tip to create a gap. The floating cells were removed and the gaps were monitored/photographed every 12 hrs.

Data set [4] concerns F-actin and EBP50. As to the kind of experiment: Binding of p-ERM/moesin with F-actin and EBP50 in IP products of H522 cells. The settings on record: together with Moesin-WT. It is filed as cell-based, human.
Data set [5] concerns H1792 cells. Description: Quantitative cell migration assay. The note with it: H1792, vs Scr or Ant-163. It is filed as cell-based, human.
From the text: as §1, §2

Take “Ant-163: DNA sequence antisense to piR-L-163, SEQ ID NO:496, 5′-GGTCAGAGAATCAAAGTAACATCATGATAT-3′ (DNA, backbone and methylation of C not given here)”: the “cell viability and proliferation” value in data set [1] was “enhanced cell viability and proliferation”. Further, in data set [2], the cell cycle distribution entry is “accelerated DNA synthesis and G2-M accumulation”. The cell migration result in data set [3] is “significantly increased cell migration”.

On to “piR-L-163: sprRNA, SEQ ID NO:282; piRNA-L aligned to intron 10 of LAMC2; AUAUCAUGAUGUUACUUUGAUUCUCUGACC with 3′ 2′-O-methylation (listed as RNA, chemistry not fully specified; listed as Homo sapiens)”, for which, in data set [4], the “binding of moesin with F-actin and EBP50” value was “enhanced binding with F-actin and EBP50”. Besides, the cell migration result in data set [5] is given as “significantly decreased cell migration”.
